Assay results published in publication PMC7177833, “2-Aminopyridine Analogs Inhibit Both Enzymes of the Glyoxylate Shunt in Pseudomonas aeruginosa” (International Journal of Molecular Sciences, 2020).

Experiments:
[1] = molecular target: T1, CYP2C19 (Homo sapiens, UniProt P33261); assay: CYP450 inhibition in HLM, mephenytoin probe; format: in vitro ADME
T1 construct: pooled human liver microsomes; tissue BioIVT; host or cells: pooled human liver microsomes
Method: The CYP450 inhibition was determined by measuring the reaction products of known CYP450 substrates (probes). […] These probe solutions were dispensed (195 µL) into clear 96-well plates with low evaporation lids (Corning, Turin, Italy) and the plates were prewarmed to 37 °C in a thermomixer (Hamilton, Agrate Brianza, Italy). Next, 5 µL of the test compound or appropriate positive control (Table S4) were added to the wells and the plates were incubated for a further 5 min. Following this, the reactions were started by adding NADPH regenerating solution (50 µL, see previous Section 4.7) to each well. CYP450 mixtures containing phenacetin, rosiglitazone, mephenytoin, atorvastatin, and nifedipine probes were incubated for 10 min at 37 °C, whereas those with midazolam and diclofenac were incubated for 5 min at 37 °C. […]
Probe products were analyzed on an API4000 Qtrap mass spectrometer (Applied Biosystems/MDS SCIEX, Monza, Italy) coupled with an Acquity UPLC system (Waters, Milan, Italy) and a CTC-PAL auto-injector (CTC Analytics AG, Zwingen, Switzerland). […] The analytes were quantified in multiple reaction-monitoring mode. Data were processed, and the percentage control activity was calculated based on a comparison between the ratio of the sample peak area and the peak area.

[2] = molecular target: MSPa (Pseudomonas aeruginosa, UniProt Q9I636); assay: Kinetic mode of action on MSPa; format: biochemical; design: made in house
Method: The enzymatic activity of purified ICLPa and MSPa was assayed essentially as previously described. Compounds were added to the reaction mixtures (minus substrates) and incubated for 5 min at 37 °C. The enzyme concentration in the reaction mixtures was 170 nM for ICL and 25 nM for MS (based on the concentration of the monomer in each case). […] The reactions were initiated by the addition of pH-adjusted substrates, and the initial rates were recorded as A324 nm (for ICLPa) and A412 nm (for MSPa) using a Biospectrometer (Eppendorf, Stevenage, UK). Substrate turnover was calculated from the molar extinction coefficient of the assay products: Glyoxylate-phenylhydrazone (16,800/M/cm) for ICLPa and 2-nitro-5-thiobenzoic acid (14,150/M/cm) for MSPa.
The mode of action of SB002 on MSPa and ICLPa was determined by titrating the respective substrates of each enzyme in the presence of three fixed concentrations of SB002 (selected to lie around the measured IC50 value) and measuring the reaction rates as outlined in Section 4.3. Double-reciprocal plots and best-fit inhibition models (GraphPad Prism v. 7.04) were used to assess the mode of inhibition. Inhibition constants were calculated using GraphPad Prism v. 7.04 (GraphPad Software, Inc., La Jolla, CA, USA). Each data point represents the mean ± SD for three independent replicates.

[3] = CellTiter-Glo luminescent cell viability assay (ATP), A-375; format: cell-based, human; conditions: human; A-375 cells, 48 h, ATP luminescence; read-out: Cytotoxicity IC50 A-375
Method: (§1) The number of viable cells based on ATP quantification was determined using the CellTiter-Glo® luminescent cell viability assay (Promega, Madison, WI, USA, lot no. 0000200446). Briefly, cells were seeded into white, flat-bottomed, sterile 96-well plates (PerkinElmer, Beaconsfield, UK) and incubated for 24 h. For A-375 cells, we used 10,000 cells/well, and for H27 cells, we used 7500 cells/well. Test compounds were diluted in assay medium (Glutamax DMEM with 5% FBS (Gibco)) and added to the plates in two-fold dilutions starting at 100 µM. Negative controls (0.5% DMSO) and positive controls (camptothecin, 1.6 µM for the A-375 cells and 50 µM for the H27 cells) were also included, and the plates were incubated for an additional 48 h (95% humidity, 5% CO2 at 37 °C). After incubation, the cells were washed with PBS. To each well, we then added 50 µL of assay medium plus 50 µL of CellTiter-Glo® reagent. The samples were then shaken for 2 min at 100 rpm at 25 °C, followed by a further 10 min at 25 °C to stabilize the luminescence signal. Luminescence was measured using a VarioSkan LUX multimode microplate reader (Thermo Fisher Scientific, Vantaa, Finland).

[4] = test system: A-375 cells; assay: as above; format: cell-based, human; conditions: IC50 cytotoxicity/IC50 P. aeruginosa growth inhibition in M9 acetate
Method: as §1

Chain of MSPa (Q9I636 whole entry): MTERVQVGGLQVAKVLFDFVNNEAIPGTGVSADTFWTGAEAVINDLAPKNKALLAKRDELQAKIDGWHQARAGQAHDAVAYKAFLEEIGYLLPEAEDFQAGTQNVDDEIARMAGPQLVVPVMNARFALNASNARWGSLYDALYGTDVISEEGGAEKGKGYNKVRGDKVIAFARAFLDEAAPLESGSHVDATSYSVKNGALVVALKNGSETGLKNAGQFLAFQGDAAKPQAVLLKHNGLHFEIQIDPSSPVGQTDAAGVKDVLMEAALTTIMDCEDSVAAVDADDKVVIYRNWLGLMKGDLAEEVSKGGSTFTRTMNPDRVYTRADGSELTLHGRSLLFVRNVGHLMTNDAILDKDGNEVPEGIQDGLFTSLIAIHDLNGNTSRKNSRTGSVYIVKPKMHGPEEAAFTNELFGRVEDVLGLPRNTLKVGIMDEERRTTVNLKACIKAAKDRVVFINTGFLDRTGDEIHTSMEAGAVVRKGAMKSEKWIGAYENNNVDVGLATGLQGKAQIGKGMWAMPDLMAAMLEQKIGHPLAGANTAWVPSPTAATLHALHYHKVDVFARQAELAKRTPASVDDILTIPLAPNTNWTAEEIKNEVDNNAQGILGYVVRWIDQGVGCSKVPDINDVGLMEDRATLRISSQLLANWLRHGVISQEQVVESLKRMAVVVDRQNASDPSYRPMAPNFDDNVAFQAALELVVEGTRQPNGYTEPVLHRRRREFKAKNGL
T1 sequence (P33261 whole entry): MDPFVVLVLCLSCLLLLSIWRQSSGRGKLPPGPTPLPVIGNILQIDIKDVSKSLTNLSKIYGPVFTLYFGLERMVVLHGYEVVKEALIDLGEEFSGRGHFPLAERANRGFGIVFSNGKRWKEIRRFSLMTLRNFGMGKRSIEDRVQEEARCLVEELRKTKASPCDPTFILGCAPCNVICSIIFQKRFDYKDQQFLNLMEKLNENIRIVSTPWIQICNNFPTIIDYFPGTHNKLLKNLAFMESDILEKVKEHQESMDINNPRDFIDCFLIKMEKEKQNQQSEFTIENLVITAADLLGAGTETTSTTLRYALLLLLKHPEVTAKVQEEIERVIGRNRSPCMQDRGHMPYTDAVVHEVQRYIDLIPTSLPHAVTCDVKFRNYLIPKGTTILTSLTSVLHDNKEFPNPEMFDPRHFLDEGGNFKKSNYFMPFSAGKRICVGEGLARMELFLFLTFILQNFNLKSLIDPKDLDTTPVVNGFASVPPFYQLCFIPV

Row | SMILES | IC50 CYP450 2C19 [1] | IC50 ([1]; read-out: IC50 CYP450 2C19) [µM] | Ki [2] [µM] | Mode of inhibition of MSPa with respect to acetyl-CoA ([2]; acetyl-CoA varied, saturating (200 µM) glyoxylate) | Ki’ (binding to the ES complex), MSPa ([2]; glyoxylate varied, 200 µM acetyl-CoA) [µM] | Mode of inhibition of MSPa with respect to glyoxylate ([2]; glyoxylate varied, saturating (200 µM) acetyl-CoA) | IC50 at 48 h [3] [µM] | Therapeutic index A-375 [4]
1 | CC(C)(C)OC(=O)/N=C(\NC(=O)OC(C)(C)C)Nc1cc(Cl)ccn1 [SB002] | some evidence of interacting with the turnover of mephenytoin | 126 | 4.5 | competitive mode of inhibition | 3.9 | uncompetitive inhibition at the lower inhibitor concentrations tested, and noncompetitive inhibition at the higher concentration of inhibitor | – | –
2 | CC(C)(C)OC(=O)/N=C(\NC(=O)OC(C)(C)C)Nc1cc(C#N)ccn1 [SB023] | – | – | – | – | – | – | 106 | 11.95
